Tests used:
Format in all cases: biochemical
JAK3 = target: T1, JAK3 (Homo sapiens, UniProt P52333); assay: Inhibition of a panel of kinases, in vitro HotSpot kinase assay: JAK3; settings: D-compounds panel data; 1 μM ATP; read-out: IC50 JAK3
T1 sequence (P52333 1-1124): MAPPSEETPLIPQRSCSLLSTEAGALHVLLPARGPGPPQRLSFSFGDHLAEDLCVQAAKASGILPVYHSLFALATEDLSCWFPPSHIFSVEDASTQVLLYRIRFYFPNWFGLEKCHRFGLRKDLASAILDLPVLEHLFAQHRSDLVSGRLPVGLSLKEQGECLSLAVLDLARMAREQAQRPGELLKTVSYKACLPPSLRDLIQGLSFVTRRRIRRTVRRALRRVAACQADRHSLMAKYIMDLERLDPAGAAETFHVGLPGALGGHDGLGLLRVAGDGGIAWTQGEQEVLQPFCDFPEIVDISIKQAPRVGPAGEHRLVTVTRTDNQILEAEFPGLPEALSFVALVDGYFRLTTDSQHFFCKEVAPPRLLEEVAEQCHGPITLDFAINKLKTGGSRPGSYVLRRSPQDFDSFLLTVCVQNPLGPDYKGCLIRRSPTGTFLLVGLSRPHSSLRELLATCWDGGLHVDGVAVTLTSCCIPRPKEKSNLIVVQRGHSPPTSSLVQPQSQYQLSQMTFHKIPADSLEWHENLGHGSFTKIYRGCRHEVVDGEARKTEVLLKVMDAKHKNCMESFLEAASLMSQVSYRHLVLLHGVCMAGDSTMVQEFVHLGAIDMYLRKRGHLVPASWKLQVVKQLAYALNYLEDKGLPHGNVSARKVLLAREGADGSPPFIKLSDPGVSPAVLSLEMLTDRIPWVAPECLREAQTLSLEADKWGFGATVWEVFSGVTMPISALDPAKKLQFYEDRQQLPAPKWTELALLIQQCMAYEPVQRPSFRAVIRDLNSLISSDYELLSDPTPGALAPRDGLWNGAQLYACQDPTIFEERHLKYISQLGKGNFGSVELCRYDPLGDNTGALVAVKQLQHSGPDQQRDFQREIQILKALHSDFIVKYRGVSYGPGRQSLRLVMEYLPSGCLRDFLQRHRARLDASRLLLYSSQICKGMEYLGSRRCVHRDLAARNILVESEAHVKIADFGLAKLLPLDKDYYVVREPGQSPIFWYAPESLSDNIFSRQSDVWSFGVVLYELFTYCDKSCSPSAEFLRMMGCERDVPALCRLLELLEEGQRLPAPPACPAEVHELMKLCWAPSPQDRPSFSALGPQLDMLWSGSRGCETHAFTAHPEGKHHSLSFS

LCK = LCK (Homo sapiens, UniProt P06239); assay: Inhibition of a panel of kinases, in vitro HotSpot kinase assay: LCK; settings: D-compounds panel data; 1 μM ATP; read-out: IC50 LCK
Chain of LCK (P06239 whole entry): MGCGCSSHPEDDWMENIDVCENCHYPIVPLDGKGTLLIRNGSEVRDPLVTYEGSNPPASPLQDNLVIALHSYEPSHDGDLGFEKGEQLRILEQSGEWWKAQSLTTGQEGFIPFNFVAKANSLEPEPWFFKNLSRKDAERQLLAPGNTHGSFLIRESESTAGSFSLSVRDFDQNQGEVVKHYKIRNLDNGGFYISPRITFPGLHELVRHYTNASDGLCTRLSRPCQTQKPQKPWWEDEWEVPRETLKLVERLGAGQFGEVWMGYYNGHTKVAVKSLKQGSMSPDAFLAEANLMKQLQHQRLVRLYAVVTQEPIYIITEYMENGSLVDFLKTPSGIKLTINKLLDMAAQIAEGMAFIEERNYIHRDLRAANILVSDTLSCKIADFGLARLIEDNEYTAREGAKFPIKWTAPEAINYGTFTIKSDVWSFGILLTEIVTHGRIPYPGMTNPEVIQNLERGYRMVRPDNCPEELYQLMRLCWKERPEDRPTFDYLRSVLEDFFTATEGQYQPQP

EGFR = EGFR (Homo sapiens, UniProt P00533); assay: Inhibition of a panel of kinases, in vitro HotSpot kinase assay: EGFR; settings: D-compounds panel data; 1 μM ATP
Chain of EGFR (P00533 25-1210): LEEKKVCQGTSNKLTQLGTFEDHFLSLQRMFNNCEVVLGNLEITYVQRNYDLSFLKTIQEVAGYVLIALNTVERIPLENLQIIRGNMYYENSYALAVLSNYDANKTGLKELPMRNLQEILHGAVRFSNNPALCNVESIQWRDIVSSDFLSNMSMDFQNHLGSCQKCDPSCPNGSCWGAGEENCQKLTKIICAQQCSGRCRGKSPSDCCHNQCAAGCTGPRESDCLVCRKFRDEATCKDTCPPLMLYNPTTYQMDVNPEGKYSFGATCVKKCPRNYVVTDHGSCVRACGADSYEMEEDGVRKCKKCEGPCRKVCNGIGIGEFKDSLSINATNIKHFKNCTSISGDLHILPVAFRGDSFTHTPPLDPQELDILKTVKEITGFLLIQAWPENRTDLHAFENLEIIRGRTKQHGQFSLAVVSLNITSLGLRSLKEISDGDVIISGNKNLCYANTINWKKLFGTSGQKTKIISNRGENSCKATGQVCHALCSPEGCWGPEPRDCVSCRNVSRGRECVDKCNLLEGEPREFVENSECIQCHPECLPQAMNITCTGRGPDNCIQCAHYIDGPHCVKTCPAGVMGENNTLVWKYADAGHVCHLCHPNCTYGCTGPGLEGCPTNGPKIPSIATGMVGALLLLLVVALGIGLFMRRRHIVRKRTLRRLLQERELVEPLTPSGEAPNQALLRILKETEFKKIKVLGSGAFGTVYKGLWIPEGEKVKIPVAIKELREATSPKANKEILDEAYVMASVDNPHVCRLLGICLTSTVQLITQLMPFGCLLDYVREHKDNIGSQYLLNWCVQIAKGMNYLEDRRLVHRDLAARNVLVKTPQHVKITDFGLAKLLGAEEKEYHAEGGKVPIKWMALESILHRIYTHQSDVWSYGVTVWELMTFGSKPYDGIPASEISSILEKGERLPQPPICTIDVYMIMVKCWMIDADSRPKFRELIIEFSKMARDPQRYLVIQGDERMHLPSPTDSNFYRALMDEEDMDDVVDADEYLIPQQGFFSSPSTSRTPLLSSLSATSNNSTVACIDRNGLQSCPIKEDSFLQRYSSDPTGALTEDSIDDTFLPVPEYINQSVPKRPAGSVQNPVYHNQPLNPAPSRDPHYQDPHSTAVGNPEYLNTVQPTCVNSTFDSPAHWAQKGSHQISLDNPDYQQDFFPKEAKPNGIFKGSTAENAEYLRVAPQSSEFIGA
Protocol: (§1) The degree of inhibition of a panel of kinases is determined using the in vitro HotSpot kinase assay (purified enzymes, ^33P-ATP, an appropriate substrate and 1 μM ATP).

SRC = SRC (Homo sapiens, UniProt P12931); assay: Inhibition of a panel of kinases, in vitro HotSpot kinase assay: SRC; settings: D-compounds panel data; 1 μM ATP
Chain of SRC (P12931 whole entry): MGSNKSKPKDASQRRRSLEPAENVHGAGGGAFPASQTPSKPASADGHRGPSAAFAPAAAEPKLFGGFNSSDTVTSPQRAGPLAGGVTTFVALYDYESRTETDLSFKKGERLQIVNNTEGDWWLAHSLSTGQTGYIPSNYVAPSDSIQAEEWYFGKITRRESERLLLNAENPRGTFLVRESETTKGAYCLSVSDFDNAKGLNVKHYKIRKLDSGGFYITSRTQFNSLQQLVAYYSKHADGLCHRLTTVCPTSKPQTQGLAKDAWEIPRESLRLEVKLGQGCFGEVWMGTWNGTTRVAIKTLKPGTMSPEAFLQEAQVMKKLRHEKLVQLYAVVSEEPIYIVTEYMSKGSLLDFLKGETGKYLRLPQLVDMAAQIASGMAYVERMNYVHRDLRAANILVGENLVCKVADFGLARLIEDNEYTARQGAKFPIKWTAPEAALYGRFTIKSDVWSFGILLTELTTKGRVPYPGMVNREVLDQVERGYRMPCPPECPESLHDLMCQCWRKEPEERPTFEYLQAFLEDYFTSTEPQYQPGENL
Protocol: as §1

TEC = target: T2, TEC (Homo sapiens, UniProt P42680); assay: Inhibition of a panel of kinases, in vitro HotSpot kinase assay: TEC; settings: D-compounds panel data; 1 μM ATP
T2 sequence (P42680 1-631): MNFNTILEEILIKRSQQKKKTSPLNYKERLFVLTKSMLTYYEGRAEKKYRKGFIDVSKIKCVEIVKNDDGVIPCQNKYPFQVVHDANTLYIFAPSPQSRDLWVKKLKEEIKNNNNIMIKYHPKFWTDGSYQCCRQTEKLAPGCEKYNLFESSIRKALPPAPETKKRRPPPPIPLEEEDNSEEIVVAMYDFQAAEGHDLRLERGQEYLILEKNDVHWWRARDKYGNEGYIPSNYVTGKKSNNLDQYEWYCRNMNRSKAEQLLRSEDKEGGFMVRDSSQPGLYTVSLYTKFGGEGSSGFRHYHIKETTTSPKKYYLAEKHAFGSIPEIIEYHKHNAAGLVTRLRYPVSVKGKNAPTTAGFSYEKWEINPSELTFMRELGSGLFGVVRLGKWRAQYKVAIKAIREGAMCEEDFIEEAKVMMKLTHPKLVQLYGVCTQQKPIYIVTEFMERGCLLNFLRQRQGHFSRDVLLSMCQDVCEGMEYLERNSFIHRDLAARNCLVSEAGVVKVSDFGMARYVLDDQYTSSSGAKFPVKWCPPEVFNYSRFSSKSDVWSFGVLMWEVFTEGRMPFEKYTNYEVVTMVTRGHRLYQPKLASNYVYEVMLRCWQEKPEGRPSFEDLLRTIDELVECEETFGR
Protocol: as §1

COCCN(C)Cc1cc(Nc2nc(N3CCC[C@@H](NC(=O)c4ccc(C5CC5)cc4)[C@H]3C)cnc2C(N)=O)sn1 [Example D-269, 5-[(2R,3R)-3-(4-cyclopropylbenzamido)-2-methylpiperidin-1-yl]-3-[(3-{[(2-methoxyethyl)(methyl)amino]methyl}-1,2-thiazol-5-yl)amino]pyrazine-2-carboxamide] was tested, and the IC50 (JAK3) was 1000 to 10000 nM, the IC50 (LCK) was 100 to 1000 nM and the IC50 (EGFR) was > 10000 nM. The IC50 (SRC) was 10 to 100 nM and the IC50 (TEC) was 100 to 1000 nM.

For C[C@@H]1[C@H](NC(=O)c2ccc(C3CC3)cc2)CCCN1c1cnc(C(N)=O)c(Nc2cnn(C3CCC(F)(F)CC3)c2)n1 [Example D-307, 5-[(2R,3R)-3-(4-cyclopropylbenzamido)-2-methylpiperidin-1-yl]-3-{[1-(4,4-difluorocyclohexyl)-1H-pyrazol-4-yl]amino}pyrazine-2-carboxamide], the IC50 (JAK3) was > 10000 nM, the IC50 (LCK) was 100 to 1000 nM and the IC50 (EGFR) was > 10000 nM. The IC50 (SRC) was 100 to 1000 nM and the IC50 (TEC) was 10 to 100 nM.

Work on C[C@@H]1[C@H](NC(=O)c2ccc(C3(CO)CC3)cc2)CCCN1c1cnc(C(N)=O)c(Nc2cnn(C)c2)n1 [Example D-260, 5-[(2R,3R)-3-{4-[1-(hydroxymethyl)cyclopropyl]benzamido}-2-methylpiperidin-1-yl]-3-[(1-methyl-1H-pyrazol-4-yl)amino]pyrazine-2-carboxamide] yielded an IC50 (JAK3) of 1000 to 10000 nM, an IC50 (LCK) of 10 to 100 nM and an IC50 (EGFR) of 1000 to 10000 nM. For the same compound, the IC50 (SRC) was 10 to 100 nM and the IC50 (TEC) was ≤ 10 nM.

Work on C[C@@H]1[C@H](NC(=O)c2ccc(C3CC3)cn2)CCCN1c1cnc(C(N)=O)c(Nc2ccc(OC3CCN(C)CC3)cc2)n1 [Example D-297, 5-[(2R,3R)-3-(5-cyclopropylpyridine-2-amido)-2-methylpiperidin-1-yl]-3-({4-[(1-methylpiperidin-4-yl)oxy]phenyl}amino)pyrazine-2-carboxamide] yielded an IC50 (JAK3) of 100 to 1000 nM, an IC50 (LCK) of 10 to 100 nM and an IC50 (EGFR) of 100 to 1000 nM. The IC50 (SRC) was 10 to 100 nM and the IC50 (TEC) was ≤ 10 nM.

In the case of C[C@@H]1[C@H](NC(=O)c2ccc(C3CC3)cc2)CCCN1c1cnc(C(N)=O)c(Nc2cnn(C(F)F)c2)n1 [Example D-275, 5-[(2R,3R)-3-(4-cyclopropylbenzamido)-2-methylpiperidin-1-yl]-3-{[1-(difluoromethyl)-1H-pyrazol-4-yl]amino}pyrazine-2-carboxamide], the IC50 (JAK3) is reported as > 10000 nM, the IC50 (LCK) is reported as 1000 to 10000 nM and the IC50 (EGFR) is reported as > 10000 nM. For the same compound, the IC50 (SRC) was 100 to 1000 nM and the IC50 (TEC) was 10 to 100 nM.

In the case of C[C@@H]1[C@H](NC(=O)c2ccc(C3CC3)cc2)CCCN1c1cnc(C(N)=O)c(Nc2cnn(C3CCN(C(=O)C4CC4)CC3)c2)n1 [Example D-288, 3-{[1-(1-cyclopropanecarbonylpiperidin-4-yl)-1H-pyrazol-4-yl]amino}-5-[(2R,3R)-3-(4-cyclopropylbenzamido)-2-methylpiperidin-1-yl]pyrazine-2-carboxamide], the IC50 (JAK3) is reported as 1000 to 10000 nM, the IC50 (LCK) is reported as 100 to 1000 nM and the IC50 (EGFR) is reported as 1000 to 10000 nM. For the same compound, the IC50 (SRC) was 10 to 100 nM and the IC50 (TEC) was ≤ 10 nM.

C[C@@H]1[C@H](NC(=O)c2ccc3nccn3c2)CCCN1c1cnc(C(N)=O)c(Nc2cnn(C)c2)n1 [Example D-266, 5-[(2R,3R)-3-(imidazo[1,2-a]pyridine-6-amido)-2-methylpiperidin-1-yl]-3-[(1-methyl-1H-pyrazol-4-yl)amino]pyrazine-2-carboxamide] showed an IC50 (JAK3) of 1000 to 10000 nM, an IC50 (LCK) of 10 to 100 nM and an IC50 (EGFR) of 1000 to 10000 nM. The IC50 (SRC) was 10 to 100 nM and the IC50 (TEC) was ≤ 10 nM.

In the case of C[C@@H]1[C@H](NC(=O)c2ccc(C3CC3)cc2)CCCN1c1cnc(C(N)=O)c(Nc2cnn(-c3ccncc3)c2)n1 [Example D-284, 5-[(2R,3R)-3-(4-cyclopropylbenzamido)-2-methylpiperidin-1-yl]-3-{[1-(pyridin-4-yl)-1H-pyrazol-4-yl]amino}pyrazine-2-carboxamide], the IC50 (JAK3) is reported as > 10000 nM, the IC50 (LCK) is reported as 10 to 100 nM and the IC50 (EGFR) is reported as > 10000 nM. The IC50 (SRC) was 10 to 100 nM and the IC50 (TEC) was ≤ 10 nM.

C[C@@H]1[C@H](NC(=O)c2ccc(C(O)C(F)(F)F)cc2)CCCN1c1cnc(C(N)=O)c(Nc2cnn(C)c2)n1 (single isomer, unassigned) [Example D-250] showed an IC50 (JAK3) of 100 to 1000 nM, an IC50 (LCK) of 10 to 100 nM and an IC50 (EGFR) of 100 to 1000 nM. For the same compound, the IC50 (SRC) was 10 to 100 nM and the IC50 (TEC) was ≤ 10 nM.

In the case of C[C@@H]1[C@H](NC(=O)c2ccc3cnn(C)c3c2)CCCN1c1cnc(C(N)=O)c(Nc2cnn(C)c2)n1 [Example D-259, N-[(2R,3R)-1-{5-carbamoyl-6-[(1-methyl-1H-pyrazol-4-yl)amino]pyrazin-2-yl}-2-methylpiperidin-3-yl]-1-methyl-1H-indazole-6-carboxamide], the IC50 (JAK3) is reported as 1000 to 10000 nM, the IC50 (LCK) is reported as 10 to 100 nM and the IC50 (EGFR) is reported as 1000 to 10000 nM. The IC50 (SRC) was 10 to 100 nM and the IC50 (TEC) was ≤ 10 nM.

COCCn1cc(Nc2nc(N3CCC[C@@H](NC(=O)c4ccc(C5CC5)cc4)[C@H]3C)cnc2C(N)=O)cn1 [Example D-270, 5-[(2R,3R)-3-(4-cyclopropylbenzamido)-2-methylpiperidin-1-yl]-3-{[1-(2-methoxyethyl)-1H-pyrazol-4-yl]amino}pyrazine-2-carboxamide] was tested, and the IC50 (JAK3) was 1000 to 10000 nM, the IC50 (LCK) was 100 to 1000 nM and the IC50 (EGFR) was 1000 to 10000 nM. The IC50 (SRC) was 100 to 1000 nM and the IC50 (TEC) was 100 to 1000 nM.

C[C@@H]1[C@H](NC(=O)c2ccc(C3CC3)cc2)CCCN1c1cnc(C(N)=O)c(Nc2ccc3c(c2)CCOC3)n1 [Example D-303, 5-[(2R,3R)-3-(4-cyclopropylbenzamido)-2-methylpiperidin-1-yl]-3-[(3,4-dihydro-1H-2-benzopyran-6-yl)amino]pyrazine-2-carboxamide] was tested, and the IC50 (JAK3) was > 10000 nM, the IC50 (LCK) was > 10000 nM and the IC50 (EGFR) was > 10000 nM. It also gave an IC50 (SRC) of 1000 to 10000 nM and an IC50 (TEC) of 10 to 100 nM.

C[C@@H]1[C@H](NC(=O)c2ccc(C3CC3)cc2)CCCN1c1cnc(C(N)=O)c(Nc2cnn(CCO)c2)n1 [Example D-281, 5-[(2R,3R)-3-(4-cyclopropylbenzamido)-2-methylpiperidin-1-yl]-3-{[I-(2-hydroxyethyl)-1H-pyrazol-4-yl]amino}pyrazine-2-carboxamide] showed an IC50 (JAK3) of 1000 to 10000 nM, an IC50 (LCK) of 100 to 1000 nM and an IC50 (EGFR) of 1000 to 10000 nM. For the same compound, the IC50 (SRC) was 100 to 1000 nM and the IC50 (TEC) was 10 to 100 nM.

C[C@@H]1[C@H](NC(=O)c2ccc(C3CC3)c(O)c2)CCCN1c1cnc(C(N)=O)c(Nc2cnn(C)c2)n1 [Example D-245, 5-[(2R,3R)-3-(4-cyclopropyl-3-hydroxybenzamido)-2-methylpiperidin-1-yl]-3-[(1-methyl-1H-pyrazol-4-yl)amino]pyrazine-2-carboxamide] showed an IC50 (JAK3) of 100 to 1000 nM, an IC50 (LCK) of 100 to 1000 nM and an IC50 (EGFR) of 1000 to 10000 nM. The IC50 (SRC) was 10 to 100 nM and the IC50 (TEC) was ≤ 10 nM.

Cc1nn(C)cc1Nc1nc(N2CCC[C@@H](NC(=O)c3ccc(C4CC4)cc3)[C@H]2C)cnc1C(N)=O [Example D-272, 5-[(2R,3R)-3-(4-cyclopropylbenzamido)-2-methylpiperidin-1-yl]-3-[(1,3-dimethyl-1H-pyrazol-4-yl)amino]pyrazine-2-carboxamide] was tested, and the IC50 (JAK3) was > 10000 nM, the IC50 (LCK) was > 10000 nM and the IC50 (EGFR) was 1000 to 10000 nM. The IC50 (SRC) was > 10000 nM and the IC50 (TEC) was 1000 to 10000 nM.
